Experimental data published in patent US20230139171A1 (SITA Information Networking Computing UK Limited, priority 2019, published 2023).

Experiments:
Format in all cases: cell-based
[1] = target: T1, human TLR7 (Homo sapiens, UniProt Q9NYK1); experiment: TLR7 inhibition reporter assay (HEK-Blue cells, SEAP reporter, gardiquimod stimulation); settings: HEK-Blue cells overexpressing human TLR7, SEAP reporter, gardiquimod 7.5 μM; read-out: TLR7 IC50
T1 construct: host or cells: HEK-Blue cells
T1 sequence (Q9NYK1 27-1049): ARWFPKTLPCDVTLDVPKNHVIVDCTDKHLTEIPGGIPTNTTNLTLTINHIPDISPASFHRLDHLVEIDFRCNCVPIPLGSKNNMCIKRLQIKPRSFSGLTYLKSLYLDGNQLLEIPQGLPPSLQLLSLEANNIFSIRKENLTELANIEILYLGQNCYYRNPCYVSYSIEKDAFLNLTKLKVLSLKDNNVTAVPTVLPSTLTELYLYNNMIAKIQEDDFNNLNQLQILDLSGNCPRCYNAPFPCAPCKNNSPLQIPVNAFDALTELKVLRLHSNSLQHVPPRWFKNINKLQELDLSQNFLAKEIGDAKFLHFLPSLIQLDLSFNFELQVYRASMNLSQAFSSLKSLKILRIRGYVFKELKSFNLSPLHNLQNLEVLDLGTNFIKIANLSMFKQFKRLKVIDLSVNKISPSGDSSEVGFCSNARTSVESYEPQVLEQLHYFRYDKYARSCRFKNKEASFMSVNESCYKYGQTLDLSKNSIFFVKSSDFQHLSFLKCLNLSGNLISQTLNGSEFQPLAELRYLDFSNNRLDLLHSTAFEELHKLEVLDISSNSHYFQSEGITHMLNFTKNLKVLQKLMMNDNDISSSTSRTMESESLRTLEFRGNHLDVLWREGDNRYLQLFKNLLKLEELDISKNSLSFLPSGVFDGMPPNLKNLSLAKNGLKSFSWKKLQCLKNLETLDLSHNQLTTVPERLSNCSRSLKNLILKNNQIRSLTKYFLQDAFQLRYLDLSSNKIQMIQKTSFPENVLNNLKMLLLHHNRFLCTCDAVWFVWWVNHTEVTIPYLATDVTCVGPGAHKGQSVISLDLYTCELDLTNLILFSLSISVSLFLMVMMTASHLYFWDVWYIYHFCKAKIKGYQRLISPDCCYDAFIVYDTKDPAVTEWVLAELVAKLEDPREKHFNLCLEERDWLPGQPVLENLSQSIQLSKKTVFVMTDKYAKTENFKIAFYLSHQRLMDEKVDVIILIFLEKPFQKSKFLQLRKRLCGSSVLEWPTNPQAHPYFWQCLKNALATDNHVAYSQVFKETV
How it was run: (§1)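 Agonists used: gardiquimod 7.5 μM (TLR7), R848 15.9 μM (TLR8), ODN2006 5 nM (TLR9), added after 30 min room-temperature compound pre-treatment (0.05 nM–50 μM) of receptor-overexpressing HEK-Blue cells. SEAP reporter (NF-κB/AP-1 driven) read after 22 h at 37 °C; inhibition scaled between agonist+DMSO and reference-inhibitor wells.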

[2] = target: T2, human TLR8 (Homo sapiens, UniProt Q9NR97); experiment: TLR8 inhibition reporter assay (HEK-Blue cells, SEAP reporter, R848 stimulation); settings: HEK-Blue cells overexpressing human TLR8, SEAP reporter, R848 15.9 μM; read-out: TLR8 IC50
T2 construct: host or cells: HEK-Blue cells
T2 sequence (Q9NR97 27-1041): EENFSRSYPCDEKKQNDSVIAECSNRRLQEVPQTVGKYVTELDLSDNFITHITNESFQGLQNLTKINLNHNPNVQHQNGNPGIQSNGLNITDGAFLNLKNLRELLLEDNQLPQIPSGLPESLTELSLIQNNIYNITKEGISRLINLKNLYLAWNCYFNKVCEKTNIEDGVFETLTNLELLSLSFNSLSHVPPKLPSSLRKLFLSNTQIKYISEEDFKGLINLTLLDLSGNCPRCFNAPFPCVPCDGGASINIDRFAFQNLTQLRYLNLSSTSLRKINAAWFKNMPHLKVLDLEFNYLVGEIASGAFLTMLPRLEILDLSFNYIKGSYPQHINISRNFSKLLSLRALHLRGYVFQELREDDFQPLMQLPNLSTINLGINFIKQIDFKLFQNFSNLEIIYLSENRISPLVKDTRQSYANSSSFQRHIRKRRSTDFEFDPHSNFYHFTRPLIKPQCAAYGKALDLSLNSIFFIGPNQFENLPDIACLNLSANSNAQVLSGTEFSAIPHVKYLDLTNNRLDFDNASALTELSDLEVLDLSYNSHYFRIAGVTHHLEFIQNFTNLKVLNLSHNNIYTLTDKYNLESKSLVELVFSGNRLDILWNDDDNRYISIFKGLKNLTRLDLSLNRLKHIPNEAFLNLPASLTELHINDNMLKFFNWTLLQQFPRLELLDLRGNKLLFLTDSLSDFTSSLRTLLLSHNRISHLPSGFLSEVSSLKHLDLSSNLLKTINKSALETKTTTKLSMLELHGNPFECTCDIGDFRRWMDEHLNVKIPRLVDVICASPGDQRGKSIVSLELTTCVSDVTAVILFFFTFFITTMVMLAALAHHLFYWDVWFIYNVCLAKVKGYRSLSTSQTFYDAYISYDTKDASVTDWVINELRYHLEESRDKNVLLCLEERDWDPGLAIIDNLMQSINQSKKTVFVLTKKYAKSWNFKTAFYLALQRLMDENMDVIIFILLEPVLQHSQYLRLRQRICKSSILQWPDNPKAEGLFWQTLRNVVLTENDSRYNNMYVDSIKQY
How it was run: as §1

[3] = target: T3, human TLR9 (Homo sapiens, UniProt Q9NR96); experiment: TLR9 inhibition reporter assay (HEK-Blue cells, SEAP reporter, ODN2006 stimulation); settings: HEK-Blue cells overexpressing human TLR9, SEAP reporter, ODN2006 5 nM
T3 construct: host or cells: HEK-Blue cells
T3 sequence (Q9NR96 26-1032): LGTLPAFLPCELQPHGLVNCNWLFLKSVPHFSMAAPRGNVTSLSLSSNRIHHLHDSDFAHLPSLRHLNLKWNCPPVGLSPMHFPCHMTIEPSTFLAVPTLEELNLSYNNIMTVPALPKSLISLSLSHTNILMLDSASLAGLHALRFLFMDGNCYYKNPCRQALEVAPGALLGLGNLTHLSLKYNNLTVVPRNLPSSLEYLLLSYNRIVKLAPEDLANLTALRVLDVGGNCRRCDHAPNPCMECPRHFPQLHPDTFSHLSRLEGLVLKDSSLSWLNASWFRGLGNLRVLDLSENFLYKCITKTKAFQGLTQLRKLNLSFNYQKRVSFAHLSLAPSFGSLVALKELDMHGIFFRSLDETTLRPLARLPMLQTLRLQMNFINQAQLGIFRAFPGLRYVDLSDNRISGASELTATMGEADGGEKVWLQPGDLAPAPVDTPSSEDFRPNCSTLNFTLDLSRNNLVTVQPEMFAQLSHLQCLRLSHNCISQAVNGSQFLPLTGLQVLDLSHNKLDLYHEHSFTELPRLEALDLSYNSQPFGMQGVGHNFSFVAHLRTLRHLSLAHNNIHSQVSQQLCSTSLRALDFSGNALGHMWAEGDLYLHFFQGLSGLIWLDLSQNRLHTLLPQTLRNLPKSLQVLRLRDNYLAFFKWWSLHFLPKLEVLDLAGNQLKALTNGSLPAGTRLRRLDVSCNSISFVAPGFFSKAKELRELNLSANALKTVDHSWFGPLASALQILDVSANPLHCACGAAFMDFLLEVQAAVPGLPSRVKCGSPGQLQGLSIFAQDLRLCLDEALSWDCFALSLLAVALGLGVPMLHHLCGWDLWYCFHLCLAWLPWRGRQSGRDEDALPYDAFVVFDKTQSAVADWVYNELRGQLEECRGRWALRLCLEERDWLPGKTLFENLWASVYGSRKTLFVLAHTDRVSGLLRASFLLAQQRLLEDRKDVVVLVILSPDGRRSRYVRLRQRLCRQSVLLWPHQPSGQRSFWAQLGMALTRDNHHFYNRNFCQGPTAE
How it was run: as §1

SMILES | IC50 [1] | IC50 [2] | IC50 [3]
CCc1c(-c2cc(OC)c3ncnn3c2)[nH]c2sc(C3CCC(N4CC5(COC5)C4)CC3)nc12 (single isomer, unassigned) [Example 270, 6-(4-(6-ethyl-5-(8-methoxy-[1,2,4]triazolo[1,5-a]pyridin-6-yl)-4H-pyrrolo[3,2-d]thiazol-2-yl)cyclohexyl)-2-oxa-6-azaspiro[3.3]heptane] | 8.99 nM | 14 nM | 3460 nM
CCc1c(-c2cc(OC)c3ncnn3c2)[nH]c2sc(C3CCC(NC4COC4)CC3)nc12 (single isomer, unassigned) [Example 272, N-(4-(6-ethyl-5-(8-methoxy-[1,2,4]triazolo[1,5-a]pyridin-6-yl)-4H-pyrrolo[3,2-d]thiazol-2-yl)cyclohexyl) oxetan-3-amine] | 137 nM | 122 nM | > 50000 nM
COc1cc(-c2[nH]c3sc(C4CCC(NC5COC5)CC4)nc3c2C)cn2ncnc12 (single isomer, unassigned) [Example 273, N-(4-(5-(8-methoxy-[1,2,4]triazolo[1,5-a]pyridin-6-yl)-6-methyl-4H-pyrrolo[3,2-d]thiazol-2-yl)cyclohexyl)oxetan-3-amine] | 13.7 nM | 26.5 nM | 5550 nM
COc1cc(-c2[nH]c3sc(C4CCC(N5CCNC(=O)C5)CC4)nc3c2C)cn2ncnc12 (single isomer, unassigned) [Example 275, 4-(4-(5-(8-methoxy-[1,2,4]triazolo[1,5-a]pyridin-6-yl)-6-methyl-4H-pyrrolo[3,2-d]thiazol-2-yl)cyclohexyl)piperazin-2-one] | 413 nM | 515 nM | > 50000 nM
COc1cc(-c2[nH]c3sc(C4CCC(N5CCNC(=O)C5)CC4)nc3c2C)cn2ncnc12 (single isomer, unassigned) [Example 276, 4-(4-(5-(8-methoxy-[1,2,4]triazolo[1,5-a]pyridin-6-yl)-6-methyl-4H-pyrrolo[3,2-d]thiazol-2-yl)cyclohexyl)piperazin-2-one] | 975 nM | > 3130 nM | > 50000 nM
Cc1c(-c2[nH]c3sc(C(=O)NC4CCC(N(C)C)CC4)nc3c2C(C)C)cn2ncnc2c1C (single isomer, unassigned) [Example 368, 5-(7,8-dimethyl-[1,2,4]triazolo[1,5-a]pyridin-6-yl)-N-(4-(dimethylamino)cyclohexyl)-6-isopropyl-4H-pyrrolo[3,2-d]thiazole-2-carboxamide] | 10.5 nM | 28.1 nM | 5460 nM
Cc1c(-c2[nH]c3sc(C(=O)NC4CCC(N(C)C)CC4)nc3c2C(C)C)cn2ncnc2c1C (single isomer, unassigned) [Example 369, 5-(7,8-dimethyl-[1,2,4]triazolo[1,5-a]pyridin-6-yl)-N-(4-(dimethylamino)cyclohexyl)-6-isopropyl-4H-pyrrolo[3,2-d]thiazole-2-carboxamide] | 18 nM | 33 nM | 46900 nM
Cc1cc(-c2[nH]c3sc(C4CCNCC4)nc3c2C(C)C)cn2ncnc12 [Example 2, 6-isopropyl-5-(8-methyl-[1,2,4]triazolo[1,5-a]pyridin-6-yl)-2-(piperidin-4-yl)-4H-pyrrolo[3,2-d]thiazole] | 2.27 nM | 5.82 nM | 6560 nM
Cc1cc(-c2[nH]c3sc(C4CCNCC4)nc3c2C(C)C)cc(C)n1 [Example 4, 5-(2,6-dimethylpyridin-4-yl)-6-isopropyl-2-(piperidin-4-yl)-4H-pyrrolo[3,2-d]thiazole] | 5.52 nM | 33.9 nM | 287 nM

These reach a lower IC50 [1]. Values come first.

IC50 [1] | IC50 [2] | IC50 [3] | SMILES
0.96 nM | 1.94 nM | 4560 nM | CCc1c(-c2cc(OC)c3ncnn3c2)[nH]c2sc(C3CCC(NC4COC4)CC3)nc12 (single isomer, unassigned) [Example 271, N-(4-(6-ethyl-5-(8-methoxy-[1,2,4]triazolo[1,5-a]pyridin-6-yl)-4H-pyrrolo[3,2-d]thiazol-2-yl)cyclohexyl) oxetan-3-amine]
2.01 nM | 8.14 nM | 760 nM | COc1cc(-c2[nH]c3sc(C4CCNCC4)nc3c2C(C)C)cn2ncnc12 [Example 1, 6-isopropyl-5-(8-methoxy-[1,2,4]triazolo[1,5-a]pyridin-6-yl)-2-(piperidin-4-yl)-4H-pyrrolo[3,2-d]thiazole]
1.84 nM | 3.05 nM | 18500 nM | CC(C)c1c(-c2cn(C)c3ncccc23)[nH]c2sc(C3CCNCC3)nc12 [Example 3, 6-isopropyl-5-(1-methyl-1H-pyrrolo[2,3-b]pyridin-3-yl)-2-(piperidin-4-yl)-4H-pyrrolo[3,2-d]thiazole]
2.05 nM | 20.9 nM | 1100 nM | COc1cc(-c2[nH]c3sc(C4CCN(C(=O)CN(C)C)CC4)nc3c2C(C)C)cn2ncnc12 [Example 6, 2-(dimethylamino)-1-(4-(6-isopropyl-5-(8-methoxy-[1,2,4]triazolo[1,5-a]pyridin-6-yl)-4H-pyrrolo[3,2-d]thiazol-2-yl)piperidin-1-yl)ethan-1-one]
